In brackets after ≈: the same amount, converted by molar mass.
Columns and labels:
[1] = system: Staphylococcus aureus; experiment: Antibacterial activity against methicillin-resistant Staphylococcus aureus isolate SA1114 by CLSI M100-S17 protocol based broth dilution method; format: functional
[2] = system: Staphylococcus aureus; experiment: Antibacterial activity against methicillin-susceptible Staphylococcus aureus ATCC 29213 by CLSI M100-S17 protocol based broth dilution method; format: functional

Structure (SMILES) | MIC [1] [µg/mL] | MIC [2] [µg/mL]
CCCC[C@@H]1NC(=O)[C@H](C)NC(=O)[C@H](NC(=O)[C@H](CO)NC(=O)[C@@H](NC(=O)[C@H](NC(=O)[C@@H](CCC(N)=O)NC(=O)[C@H](CO)NC(=O)[C@@H](NC(=O)[C@@H](Cc2ccccc2)NC)[C@@H](C)CC)[C@H](C)CC)[C@@H](C)CC)[C@H](C)OC(=O)[C@H]([C@@H](C)CC)NC1=O | 2 (≈ 1.66 µM) | 0.5 (≈ 0.416 µM)
CC[C@@H](C)[C@@H](NC(=O)[C@@H](CCC(N)=O)NC(=O)[C@H](CO)NC(=O)[C@@H](NC(=O)[C@@H](Cc1ccccc1)NC)[C@@H](C)CC)C(=O)N[C@H](C(=O)N[C@@H](CO)C(=O)N[C@H]1C(=O)N[C@@H](C)C(=O)NCC(=O)N[C@@H]([C@@H](C)CC)C(=O)O[C@H]1C)[C@@H](C)CC | 8 to 16 (≈ 6.98 to 14 µM) | 2 (≈ 1.75 µM)
CC[C@@H]1NC(=O)[C@H](C)NC(=O)[C@H](NC(=O)[C@H](CO)NC(=O)[C@@H](NC(=O)[C@H](NC(=O)[C@@H](CCC(N)=O)NC(=O)[C@H](CO)NC(=O)[C@@H](NC(=O)[C@@H](Cc2ccccc2)NC)[C@@H](C)CC)[C@H](C)CC)[C@@H](C)CC)[C@H](C)OC(=O)[C@H]([C@@H](C)CC)NC1=O | 4 (≈ 3.41 µM) | 1 (≈ 0.852 µM)
CC[C@@H](C)[C@@H](NC(=O)[C@@H](CCC(N)=O)NC(=O)[C@H](CO)NC(=O)[C@@H](NC(=O)[C@@H](Cc1ccccc1)NC)[C@@H](C)CC)C(=O)N[C@H](C(=O)N[C@@H](CO)C(=O)N[C@H]1C(=O)N[C@@H](C)C(=O)N[C@@H](Cc2c[nH]c3ccccc23)C(=O)N[C@@H]([C@@H](C)CC)C(=O)O[C@H]1C)[C@@H](C)CC | 8 to 16 (≈ 6.28 to 12.6 µM) | 8 (≈ 6.28 µM)
CC[C@@H](C)[C@@H](NC(=O)[C@@H](CCC(N)=O)NC(=O)[C@H](CO)NC(=O)[C@@H](NC(=O)[C@@H](Cc1ccccc1)NC)[C@@H](C)CC)C(=O)N[C@H](C(=O)N[C@@H](CO)C(=O)N[C@H]1C(=O)N[C@@H](C)C(=O)N2CCC[C@H]2C(=O)N[C@@H]([C@@H](C)CC)C(=O)O[C@H]1C)[C@@H](C)CC | ≥ 32 | ≥ 32
CC[C@@H](C)[C@@H](NC(=O)[C@@H](CCC(N)=O)NC(=O)[C@H](CO)NC(=O)[C@@H](NC(=O)[C@@H](Cc1ccccc1)NC)[C@@H](C)CC)C(=O)N[C@H](C(=O)N[C@@H](CO)C(=O)N[C@H]1C(=O)N[C@@H](C)C(=O)N[C@@H](Cc2ccc(OC)cc2)C(=O)N[C@@H]([C@@H](C)CC)C(=O)O[C@H]1C)[C@@H](C)CC | ≥ 32 | 1 (≈ 0.79 µM)
CC[C@@H](C)[C@@H](NC(=O)[C@@H](CCC(N)=O)NC(=O)[C@H](CO)NC(=O)[C@@H](NC(=O)[C@@H](Cc1ccccc1)NC)[C@@H](C)CC)C(=O)N[C@H](C(=O)N[C@@H](CO)C(=O)N[C@H]1C(=O)N[C@@H](C)C(=O)N[C@@H](C(C)C)C(=O)N[C@@H]([C@@H](C)CC)C(=O)O[C@H]1C)[C@@H](C)CC | 2 (≈ 1.68 µM) | 0.5 (≈ 0.421 µM)
CC[C@@H](C)[C@@H](NC(=O)[C@@H](CCC(N)=O)NC(=O)[C@H](CO)NC(=O)[C@@H](NC(=O)[C@@H](Cc1ccccc1)NC)[C@@H](C)CC)C(=O)N[C@H](C(=O)N[C@@H](CO)C(=O)N[C@H]1C(=O)N[C@@H](C)C(=O)N[C@@H](CC(=O)O)C(=O)N[C@@H]([C@@H](C)CC)C(=O)O[C@H]1C)[C@@H](C)CC | ≥ 32 | ≥ 32
CC[C@@H](C)[C@@H](NC(=O)[C@@H](CCC(N)=O)NC(=O)[C@H](CO)NC(=O)[C@@H](NC(=O)[C@@H](Cc1ccccc1)NC)[C@@H](C)CC)C(=O)N[C@H](C(=O)N[C@@H](CO)C(=O)N[C@H]1C(=O)N[C@@H](C)C(=O)N[C@@H](Cc2ccc(C)cc2)C(=O)N[C@@H]([C@@H](C)CC)C(=O)O[C@H]1C)[C@@H](C)CC | ≥ 32 | 1 (≈ 0.8 µM)
CC[C@@H](C)[C@@H](NC(=O)[C@@H](CCC(N)=O)NC(=O)[C@H](CO)NC(=O)[C@@H](NC(=O)[C@@H](Cc1ccccc1)NC)[C@@H](C)CC)C(=O)N[C@H](C(=O)N[C@@H](CO)C(=O)N[C@H]1C(=O)N[C@@H](C)C(=O)N[C@@H](CCSC)C(=O)N[C@@H]([C@@H](C)CC)C(=O)O[C@H]1C)[C@@H](C)CC | 1 (≈ 0.82 µM) | 0.25 (≈ 0.205 µM)
CC[C@@H](C)[C@@H](NC(=O)[C@@H](CCC(N)=O)NC(=O)[C@H](CO)NC(=O)[C@@H](NC(=O)[C@@H](Cc1ccccc1)NC)[C@@H](C)CC)C(=O)N[C@H](C(=O)N[C@@H](CO)C(=O)N[C@H]1C(=O)N[C@@H](C)C(=O)N[C@@H](Cc2ccc([N+](=O)[O-])cc2)C(=O)N[C@@H]([C@@H](C)CC)C(=O)O[C@H]1C)[C@@H](C)CC | 4 (≈ 3.12 µM) | 0.5 (≈ 0.39 µM)
CC[C@@H](C)[C@@H](NC(=O)[C@@H](CCC(N)=O)NC(=O)[C@H](CO)NC(=O)[C@@H](NC(=O)[C@@H](Cc1ccccc1)NC)[C@@H](C)CC)C(=O)N[C@H](C(=O)N[C@@H](CO)C(=O)N[C@H]1C(=O)N[C@@H](C)C(=O)N[C@H](CCCCN)C(=O)N[C@@H]([C@@H](C)CC)C(=O)O[C@H]1C)[C@@H](C)CC | ≥ 32 | ≥ 32
CC[C@@H](C)[C@@H](NC(=O)[C@@H](CCC(N)=O)NC(=O)[C@H](CO)NC(=O)[C@@H](NC(=O)[C@@H](Cc1ccccc1)NC)[C@@H](C)CC)C(=O)N[C@H](C(=O)N[C@@H](CO)C(=O)N[C@H]1C(=O)N[C@@H](C)C(=O)N[C@@H]([C@@H](C)CC)C(=O)N[C@@H]([C@@H](C)CC)C(=O)O[C@H]1C)[C@@H](C)CC | 1 (≈ 0.832 µM) | 0.5 (≈ 0.416 µM)
CC[C@@H](C)[C@@H](NC(=O)[C@@H](CCC(N)=O)NC(=O)[C@H](CO)NC(=O)[C@@H](NC(=O)[C@@H](Cc1ccccc1)NC)[C@@H](C)CC)C(=O)N[C@H](C(=O)N[C@@H](CO)C(=O)N[C@H]1C(=O)N[C@@H](C)C(=O)N[C@@H](CC(C)C)C(=O)N[C@@H]([C@@H](C)CC)C(=O)O[C@H]1C)[C@@H](C)CC | 2 (≈ 1.66 µM) | 0.5 (≈ 0.416 µM)
CC[C@@H](C)[C@@H](NC(=O)[C@@H](CCC(N)=O)NC(=O)[C@H](CO)NC(=O)[C@@H](NC(=O)[C@@H](Cc1ccccc1)NC)[C@@H](C)CC)C(=O)N[C@H](C(=O)N[C@@H](CO)C(=O)N[C@H]1C(=O)N[C@@H](C)C(=O)N[C@@H](CC2CCCCC2)C(=O)N[C@@H]([C@@H](C)CC)C(=O)O[C@H]1C)[C@@H](C)CC | 2 (≈ 1.61 µM) | 0.5 (≈ 0.403 µM)
CC[C@@H](C)[C@@H](NC(=O)[C@@H](CCC(N)=O)NC(=O)[C@H](CO)NC(=O)[C@@H](NC(=O)[C@@H](Cc1ccccc1)NC)[C@@H](C)CC)C(=O)N[C@H](C(=O)N[C@@H](CO)C(=O)N[C@H]1C(=O)N[C@@H](C)C(=O)N[C@@H](CSC(C)(C)C)C(=O)N[C@@H]([C@@H](C)CC)C(=O)O[C@H]1C)[C@@H](C)CC | 4 (≈ 3.21 µM) | 2 (≈ 1.6 µM)
CC[C@@H](C)[C@@H](NC(=O)[C@@H](CCC(N)=O)NC(=O)[C@H](CO)NC(=O)[C@@H](NC(=O)[C@@H](Cc1ccccc1)NC)[C@@H](C)CC)C(=O)N[C@H](C(=O)N[C@@H](CO)C(=O)N[C@H]1C(=O)N[C@@H](C)C(=O)N[C@@H](CCC(=O)O)C(=O)N[C@@H]([C@@H](C)CC)C(=O)O[C@H]1C)[C@@H](C)CC | ≥ 32 | ≥ 32
CC[C@@H](C)[C@@H](NC(=O)[C@@H](CCC(N)=O)NC(=O)[C@H](CO)NC(=O)[C@@H](NC(=O)[C@@H](Cc1ccccc1)NC)[C@@H](C)CC)C(=O)N[C@H](C(=O)N[C@@H](CO)C(=O)N[C@H]1C(=O)N[C@@H](C)C(=O)N[C@@H](C)C(=O)N[C@@H]([C@@H](C)CC)C(=O)O[C@H]1C)[C@@H](C)CC | 8 (≈ 6.9 µM) | 2 (≈ 1.73 µM)
CC[C@@H](C)[C@@H](NC(=O)[C@@H](CCC(N)=O)NC(=O)[C@H](CO)NC(=O)[C@@H](NC(=O)[C@@H](Cc1ccccc1)NC)[C@@H](C)CC)C(=O)N[C@H](C(=O)N[C@@H](CO)C(=O)N[C@H]1C(=O)N[C@@H](C)C(=O)N[C@@H](Cc2ccc(O)cc2)C(=O)N[C@@H]([C@@H](C)CC)C(=O)O[C@H]1C)[C@@H](C)CC | 8 (≈ 6.39 µM) | 2 (≈ 1.6 µM)
CC[C@@H](C)[C@@H](NC(=O)[C@@H](CCC(N)=O)NC(=O)[C@H](CO)NC(=O)[C@@H](NC(=O)[C@@H](Cc1ccccc1)NC)[C@@H](C)CC)C(=O)N[C@H](C(=O)N[C@@H](CO)C(=O)N[C@H]1C(=O)N[C@@H](C)C(=O)N[C@@H](Cc2ccc(Br)cc2)C(=O)N[C@@H]([C@@H](C)CC)C(=O)O[C@H]1C)[C@@H](C)CC | ≥ 32 | 2 (≈ 1.52 µM)
CCC[C@@H]1NC(=O)[C@H](C)NC(=O)[C@H](NC(=O)[C@H](CO)NC(=O)[C@@H](NC(=O)[C@H](NC(=O)[C@@H](CCC(N)=O)NC(=O)[C@H](CO)NC(=O)[C@@H](NC(=O)[C@@H](Cc2ccccc2)NC)[C@@H](C)CC)[C@H](C)CC)[C@@H](C)CC)[C@H](C)OC(=O)[C@H]([C@@H](C)CC)NC1=O | 1 to 2 (≈ 0.842 to 1.68 µM) | 0.25 (≈ 0.211 µM)
CC[C@@H](C)[C@@H](NC(=O)[C@@H](CCC(N)=O)NC(=O)[C@H](CO)NC(=O)[C@@H](NC(=O)[C@@H](Cc1ccccc1)NC)[C@@H](C)CC)C(=O)N[C@H](C(=O)N[C@@H](CO)C(=O)N[C@H]1C(=O)N[C@@H](C)C(=O)N[C@@H](CO)C(=O)N[C@@H]([C@@H](C)CC)C(=O)O[C@H]1C)[C@@H](C)CC | 16 (≈ 13.6 µM) | 16 (≈ 13.6 µM)
CC[C@@H](C)[C@@H](NC(=O)[C@@H](CCC(N)=O)NC(=O)[C@H](CO)NC(=O)[C@@H](NC(=O)[C@@H](Cc1ccccc1)NC)[C@@H](C)CC)C(=O)N[C@H](C(=O)N[C@@H](CO)C(=O)N[C@H]1C(=O)N[C@@H](C)C(=O)N[C@@H](CC(N)=O)C(=O)N[C@@H]([C@@H](C)CC)C(=O)O[C@H]1C)[C@@H](C)CC | 16 (≈ 13.3 µM) | 8 (≈ 6.65 µM)
CC[C@@H](C)[C@@H](NC(=O)[C@@H](CCC(N)=O)NC(=O)[C@H](CO)NC(=O)[C@@H](NC(=O)[C@@H](Cc1ccccc1)NC)[C@@H](C)CC)C(=O)N[C@H](C(=O)N[C@@H](CO)C(=O)N[C@H]1C(=O)N[C@@H](C)C(=O)N[C@@H](Cc2ccccc2)C(=O)N[C@@H]([C@@H](C)CC)C(=O)O[C@H]1C)[C@@H](C)CC | 4 (≈ 3.24 µM) | 1 (≈ 0.809 µM)
CC[C@@H](C)[C@@H](NC(=O)[C@@H](CCC(N)=O)NC(=O)[C@H](CO)NC(=O)[C@@H](NC(=O)[C@@H](Cc1ccccc1)NC)[C@@H](C)CC)C(=O)N[C@H](C(=O)N[C@@H](CO)C(=O)N[C@H]1C(=O)N[C@@H](C)C(=O)N[C@@H](CC2CC2)C(=O)N[C@@H]([C@@H](C)CC)C(=O)O[C@H]1C)[C@@H](C)CC | 2 (≈ 1.67 µM) | 0.5 (≈ 0.417 µM)

From ChEMBL document CHEMBL4184242, “Synthesis and antibacterial studies of teixobactin analogues with non-isostere substitution of enduracididine” (2018)
